Experimental data as given in patent US20070191462A1, “Combination of A 5-HT(1) Receptor Agonist and an Alpha-2-Delta Ligand for the Treatment of Migraine” (Pfizer Limited, priority 2004, published 2007).

System: 2nd sensory neuron in the trigeminal nucleus caudalis (TNC)
Experiment: rat model of migraine: sensitization induced by inflammatory soup applied to the dura, monitored by electrophysiology in the TNC
Format: in vivo
Details: eletriptan given 3 hours after inflammatory soup on the dura; observed as late as 5.5 hours after sensitization

CN1CCC[C@@H]1Cc1c[nH]c2ccc(CCS(=O)(=O)c3ccccc3)cc12 [eletriptan]
reversal of sensitization of responses to sensory stimuli (brush and pin): did not reverse the sensitization
